{"source": "patent US20230302131A1", "about": "“MPC INHIBITION FOR PRODUCING T-CELLS WITH A MEMORY PHENOTYPE” (UNIVERSITÉ DE LAUSANNE, priority 2020, published 2023)", "key": {"OT1 CD8 T cells": {"test_system": "OT1 CD8 T cells", "test": "ATAC sequencing of OT1 CD8 T cells", "type": "cell-based, mouse", "conditions": "ATAC-seq after 3 days of culture; vs DMSO", "excerpt": "Mechanistically, it was hypothesized by the inventors that epigenetic processes might underlie the observed long-term memory phenotype and anti-tumor activity upon metabolic intervention with MPCi. […] Since acetyl-CoA is the acetyl donor for the acetylation of proteins, amongst which also histones, histone post-translational modifications were examined that are known to make chromatin accessible to transcription factors, a characteristic of memory T cells. […] These are marks known to open chromatin and make it accessible for transcription factor docking. […] Amongst those were Sell, Tcf7 and Ccr7, thereby correlating accessible chromatin with increased mRNA copies (FIG. 3E and see above).\nAfter 3 days of OT1 CD8 T cell culture, 5×10^4 cells were collected and transposed as described before (Buenrostro et al, Transposition of native chromatin for multimodal regulatory analysis and personal epigenomics. Nat Methods. 2013 December; 10(12): 1213-1218.). Amplified transposed fragments were sequenced on an Illumina HiSeq platform.\nComputations of the analysis were performed at the Vital-IT Center for high-performance computing of the SIB Swiss Institute of Bioinformatics. Sequencing reads contained in fastq files were aligned to the Mouse mm10 reference genome using Bowtie2 v.2.3.4.1, and alignment files were manipulated with samtools v.1.8. Peak calling was performed with Macs2 v.2.1.1. […]"}, "adult human T cells": {"test_system": "adult human T cells", "test": "Mitochondrial staining (MitoGreen, TMRM) of adult human T cells", "type": "cell-based", "conditions": "day 9; 25 μM; fold change compared to DMSO", "description": "FIG. 7: MPC inhibition during the activation and culture of adult human T cells induces a memory phenotype. (A) Experimental design. PBMCs were isolated from adult healthy volunteers and activated with anti-CD3/CD28 beads in the presence of DMSO or UK5099 (25 μM). Beads were removed at day 5 and T cell phenotype was analysed at day 9. (B) Percentage of CD8 T cells expressing the memory marker CD62L. (C) The mean fluorescent intensity of CD62L in the respective positive population. (D) Percentage of CD8 T cells expressing markers that allows their identification as stem cell memory T cells (TSCM). (E-F) Mitochonrial mass (identified by MitoGreen staining, E) and mitochondrial membrane potential (TMRM, F), measured by flow cytometry and expressed as fold change as compared to DMSO. (G) Mitochondrial membrane potential normalized for the mitochondrial mass, expressed as the ratio of […], fold change as compared to DMSO. Pooled data from 2 independant experiments. ns: non-significant, *p<0.05, **[…], ***p<0.001. Data represents mean±s.e.m.\nHeparinised blood was diluted with PBS and pipetted on top of Ficoll-paque (LymphoPrep). After centrifugation at 1800 rpm for 20 minutes at room temperature, the layer of cells at the intersection, containing the PBMCs was removed, washed and resuspended at 5×10^5 cells/ml of RPMI medium containing 8% human serum (AB serum), antibiotics, 2 mM L-Glutamine, 1% non-essential amino acids, 1 mM sodium pyruvate and 50 μM β-mercaptoethanol (all Gibco). Cells were activated with Human T-activator CD3/CD28 Dynabeads at a 1 bead/cell ratio with 150 IU/ml human recombinant IL2 and DMSO or 25 μM UK5099. Throughout the culture, cells were regularly split when necessary and beads were removed at day 5. At day 9, a fraction of the cells was stained with antibodies for flow cytometry analysis or for mitochondrial analysis.\n2×10^5 cells were stained with 25 nM TMRM and 50 nM MitoGreen (Molecular Probes, Invitrogen) for 30 minutes in RPMI with 5% FCS at 37° C. […]"}, "OT1 T cells": {"test_system": "OT1 T cells", "test": "RNA sequencing of OT1 T cells", "type": "cell-based, mouse", "conditions": "day 7; compared to DMSO", "description": "To evaluate the effects of MPC inhibition on T cell differentiation, OT1 splenocytes were cultured in the presence of 1 μg/ml ovalbumin-derived N4 (SIINFEKL) peptide, 100 IU/ml recombinant human IL-2 (rhIL-2) and the MPC inhibitor (MPCi) UK5099 at 75 μM or control DMSO for 3 days. The inhibitor or DMSO was then washed away and the cells were cultured for 4 more days in the presence of 100 IU/ml IL-2 and 10 ng/ml rhIL-7 (FIG. 1A). […] Thus, the increase in the memory markers upon MPCi in vitro treatment occurs at the transcriptional level.\n[…] Purity-filtered reads were adapters and quality trimmed with Cutadapt (v. 1.8, Martin 2011). Reads matching to ribosomal RNA sequences were removed with fastq_screen (v. 0.9.3). Remaining reads were further filtered for low complexity with reaper (v. 15-065, Davis et al. 2013). Reads were aligned against Mus musculus.GRCm38.86 genome using STAR (v. 2.5.2b, Dobin et al. 2013). The number of read counts per gene locus was summarized with htseq-count (v. 0.6.1, Anders et al. 2014) using Mus musculus.GRCm38.86gene annotation. Quality of the RNA-seq data alignment was assessed using RSeQC (v. 2.3.7, Wang et al. 2012). Reads were also aligned to the Mus musculus.GRCm38.86 transcriptome using STAR (v. 2.5.2b, Dobin et al. 2013) and the estimation of the isoforms abundance was computed using RSEM (v. 1.2.31, Li and Dewey 2011). Statistical analysis was performed for genes in R (R version 3.4.0). An analysis with all genes, including mitochondria, was done. Genes with less than one count per million in all samples were filtered out. Library sizes were scaled using TMM normalization (EdgeR package version 3.14.0; Robinson et al. 2010) and log-transformed with EdgeR cpm function.\nDifferential expression was computed with limma (Ritchie et al. 2015) by fitting the samples into a linear model using all conditions as factors and correcting for batch effect by introducing factors for the replicates (=paired analysis)."}}}
{"compound": "N#CC(=Cc1cn(-c2ccccc2)c2ccccc12)C(=O)O", "note": "[UK5099, 2-cyano-3-(1-phenyl-1H-indol-3-yl)-2-propenoic acid]", "values": [{"measurement": "genes associated with more accessible chromatin", "setting": "OT1 CD8 T cells", "result": 981, "unit": "genes"}, {"measurement": "mitochondrial membrane potential (TMRM)", "setting": "adult human T cells", "result": "significantly increased"}, {"measurement": "mitochondrial membrane potential normalized for the mitochondrial mass", "setting": "adult human T cells", "result": "more polarised mitochondria"}, {"measurement": "total mitochondrial mass (MitoGreen)", "setting": "adult human T cells", "result": "did not impact"}, {"measurement": "Ccr7 expression, RNA sequencing", "setting": "OT1 T cells", "result": "increased"}, {"measurement": "Sell (CD62L) expression, RNA sequencing", "setting": "OT1 T cells", "result": "at least 1.5 fold"}, {"measurement": "Tcf7 expression, RNA sequencing", "setting": "OT1 T cells", "result": "increased"}]}
